Laboratory results: ChEMBL document CHEMBL5303304, “EUbOPEN Chemogenomics Library - IncuCyte” (2023)

Tests used:
Format in all cases: toxicity, cell-based
[1] = system: U2OS; assay: Incucyte cell viability with U2OS; conditions: human, 10 µM, compound concentration 10 uM
[2] = system: HEK-293T; assay: Incucyte cell viability with HEK293T; conditions: human, 10 µM, compound concentration 10 uM
[3] = system: Fibroblast; assay: Incucyte cell viability with human fibroblast; conditions: 10 µM, compound concentration 10 uM
Also: unitless GR value; below 1 slowed growth and below 0 cell loss.

| Compound | Growth Rate ([1]; 0 h, replicate number 1) | Growth Rate ([1]; 6 h, replicate number 1) | Growth Rate ([1]; 6 h, replicate number 2) | Growth Rate ([1]; 12 h, replicate number 1) | Growth Rate ([1]; 12 h, replicate number 2) | Growth Rate ([1]; 24 h, replicate number 1) | Growth Rate ([2]; 6 h, replicate number 1) | Growth Rate ([2]; 6 h, replicate number 2) | Growth Rate ([2]; 18 h, replicate number 1) | Growth Rate ([2]; 18 h, replicate number 2) | Growth Rate ([2]; 24 h, replicate number 1) | Growth Rate ([3]; 6 h, replicate number 1) | Growth Rate ([3]; 6 h, replicate number 2) | Growth Rate ([3]; 12 h, replicate number 2) | Growth Rate ([3]; 18 h, replicate number 1) | Growth Rate ([3]; 18 h, replicate number 2) | Growth Rate ([3]; 24 h, replicate number 2) | Growth Rate ([1]; 18 h, replicate number 2) | Growth Rate ([1]; 24 h, replicate number 2) | Growth Rate ([2]; 12 h, replicate number 2) | also measured |
| --- | --- | --- | --- | --- | --- | --- | --- | --- | --- | --- | --- | --- | --- | --- | --- | --- | --- | --- | --- | --- | --- |
| COc1cc(-c2cn(C)c(=O)c3cnccc23)cc(OC)c1CN(C)C | 0.83 | 0.87 | 0.61 | 0.86 | 0.85 | 0.97 | 0.78 | 0.89 | 0.85 | 0.89 | 0.92 | 0.2 | -0.34 | 0.15 | 0.56 | 0.6 | 0.85 |  |  |  | Growth Rate ([2]; 0 h, replicate number 1): 0.56; Growth Rate ([3]; 0 h, replicate number 1): 0.17; Growth Rate ([3]; 12 h, replicate number 1): 0.48; Growth Rate ([3]; 24 h, replicate number 1): 0.58 |
| Cc1nnsc1C(=O)Nc1ccc(-n2nc(C(F)(F)F)cc2C(F)(F)F)cc1 |  | 0.52 | -0.02 | 0.51 | 0.42 | 0.9 | 0.1 | -0.01 | 0.7 | 0.39 | 0.58 | 0.37 | -0.36 | 0.73 |  | 0.94 | 0.74 | 0.63 | 0.68 | 0.28 | Growth Rate ([1]; 0 h, replicate number 2): -0.95; Growth Rate ([1]; 18 h, replicate number 1): 0.97; Growth Rate ([2]; 12 h, replicate number 1): 0.96; Growth Rate ([2]; 24 h, replicate number 2): 0.42; Growth Rate ([3]; 0 h, replicate number 2): 0.89; Growth Rate ([3]; 12 h, replicate number 1): -1 |
| O=C(O)CCCCN(CCc1cc(F)ccc1OCc1ccc(-c2ccc(C(F)(F)F)cc2)cc1)Cc1ccc(C(=O)O)cc1 | 0.99 | 0.61 | 0.58 |  | 0.87 |  |  |  |  |  |  | 0.59 |  |  | 0.85 |  |  | 0.85 | 0.91 |  | Growth Rate ([1]; 0 h, replicate number 2): -0.4; Growth Rate ([2]; 0 h, replicate number 1): 0.09; Growth Rate ([2]; 0 h, replicate number 2): -0.87; Growth Rate ([3]; 0 h, replicate number 1): -1; Growth Rate ([3]; 0 h, replicate number 2): -0.98; Growth Rate ([3]; 12 h, replicate number 1): 0.66; Growth Rate ([3]; 24 h, replicate number 1): 0.96 |
| CN1CCN(C(=O)c2ccc3cc2OCCOCCNc2ccn4ncc-3c4n2)CC1 | -0.07 |  |  |  |  |  | 0.93 | 0.6 | 0.93 | 0.85 | 0.92 | 0.73 | 0.92 |  |  |  |  |  |  | 0.93 | Growth Rate ([1]; 18 h, replicate number 1): 0.81; Growth Rate ([2]; 24 h, replicate number 2): 0.89; Growth Rate ([3]; 0 h, replicate number 2): 0.92 |
| CC(=O)Nc1c(F)cc(C(=O)N[C@H]2CC[C@H](O)CC2)cc1O[C@@H](C)c1ccccc1 [GSK046] | -0.56 | -0.86 | 0.86 | 0.72 | 0.94 | 0.83 |  | 0.69 | 0.95 |  | 0.71 | 0.63 | 0.19 | 0.74 | 0.6 | 0.93 | 1 | 0.97 | 0.84 | 0.74 | Growth Rate ([1]; 0 h, replicate number 2): 0.83; Growth Rate ([1]; 18 h, replicate number 1): 0.79; Growth Rate ([2]; 0 h, replicate number 1): 0.58; Growth Rate ([2]; 24 h, replicate number 2): 0.83; Growth Rate ([3]; 0 h, replicate number 2): 0.44; Growth Rate ([3]; 12 h, replicate number 1): 0.75; Growth Rate ([3]; 24 h, replicate number 1): 0.71 |
| CN1CCN(C(=O)c2ccc(N(C)c3ncc(C(F)(F)F)c(N[C@@H]4CCC[C@@H]4C(N)=O)n3)cc2)CC1.Cl |  |  |  |  |  |  | 1 | 0.56 |  |  |  |  | -0.99 | -0.02 |  | 0.35 | 0.9 |  | 1 |  | Growth Rate ([2]; 0 h, replicate number 2): 0.56; Growth Rate ([2]; 12 h, replicate number 1): 0.91 |
| CN1CCN(c2ccc(C(=O)Nc3n[nH]c4ccc(Cc5cc(F)cc(F)c5)cc34)c(NC3CCOCC3)c2)CC1 [ENTRECTINIB] |  | -0.92 | -0.57 | -0.62 | -0.45 | -0.66 | -0.98 | -0.99 | -0.67 | -0.58 | -0.54 |  | -1 | -0.97 | -0.92 | -0.89 | -0.77 | -0.56 | -0.6 | -0.8 | Growth Rate ([1]; 0 h, replicate number 2): -1; Growth Rate ([1]; 18 h, replicate number 1): -0.64; Growth Rate ([2]; 12 h, replicate number 1): -0.89; Growth Rate ([2]; 24 h, replicate number 2): -0.42; Growth Rate ([3]; 0 h, replicate number 1): -0.42; Growth Rate ([3]; 24 h, replicate number 1): -0.82 |
| CCCCC[C@H](O)/C=C/[C@H]1[C@H](O)CC(=O)[C@@H]1CCCCCCC(=O)O [ALPROSTADIL] |  | 0.87 |  | 0.94 | 0.76 | 0.93 | 0.47 |  |  | 0.98 |  |  |  | 0.37 |  | 0.79 | 0.9 | 0.76 | 0.92 | 0.97 | Growth Rate ([1]; 0 h, replicate number 2): 0.57; Growth Rate ([2]; 0 h, replicate number 1): -0.3; Growth Rate ([2]; 0 h, replicate number 2): 0.55; Growth Rate ([2]; 12 h, replicate number 1): 0.82; Growth Rate ([3]; 0 h, replicate number 1): -1 |
| Nc1ncnc2c1c(I)cn2[C@@H]1O[C@H](CO)[C@@H](O)[C@H]1O [IODOTUBERCIDIN] | -0.27 | -0.39 | 0.34 | 0.15 | -0.14 | -0.26 | -0.1 | -0.01 | -0.21 | -0.24 | -0.1 | 0.18 | 0.95 | 0.25 | 0.57 | 0.43 |  | -0.04 | -0.18 | -0.29 | Growth Rate ([1]; 18 h, replicate number 1): -0.13; Growth Rate ([2]; 0 h, replicate number 1): -0.62; Growth Rate ([2]; 12 h, replicate number 1): -0.22; Growth Rate ([2]; 24 h, replicate number 2): -0.16; Growth Rate ([3]; 0 h, replicate number 2): 0.24; Growth Rate ([3]; 12 h, replicate number 1): 0.39; Growth Rate ([3]; 24 h, replicate number 1): 0.53 |
| COc1cc(C)c(S(=O)(=O)N(C)CCOCC(=O)N(C)[C@H]2CCC[C@@H](N3CCN(C)CC3)C2)c(C)c1.O=C(O)C(O)C(O)C(=O)O |  |  |  |  | 0.86 |  |  |  |  |  |  | 0.87 | -0.57 | 0.57 | 0.93 | 0.67 | 0.92 |  |  |  | Growth Rate ([2]; 0 h, replicate number 2): 0.26; Growth Rate ([3]; 0 h, replicate number 1): -1 |
